“Also recorded” adds a separate entry of the source.
Experiments:
[1] = system: brain 5-HT axonal markers; details: intrastriatal administration; ref Jones et al. 2005; cited from earlier work
[2] = system: brain serotonin (5-HT) neurons; assay: Regional brain 5-HT and 5-HIAA concentrations one week after drug treatment; format: in vivo, rat; details: one week after single oral dose of 20 mg/kg MDMA
[3] = system: brain serotonin (5-HT) neurons; details: ref Paris and Cunningham 1992, Esteban et al. 2001, Escobedo et al. 2005; cited from earlier work
[4] = Rectal; format: in vivo, rat
[5] = system: cytochrome P450 (CYP450); details: ref Broly et al. 1990; Ramamoorthy et al. 2002; Heydari et al. 2004; cited from earlier work

CNC(C)Cc1cc(O)c(O)c(SC[C@H](NC(C)=O)C(=O)O)c1 (stereo partly shown) [5-NAC-HHMA, 5-N-acetylcystein-S-yl-HHMA]
lasting depletions of indoles in the rat brain [1]: produces lasting depletions of indoles

CNC(C)Cc1ccc2c(c1)OCO2 (stereo not shown) [MDMA, 3,4-Methylenedioxymethamphetamine]
5-HT and 5-HIAA concentrations across brain regions after MDMA [2]: lasting effects | toxic effects after central administration [3]: does not produce toxic effects

COc1ccc2c(c1)[C@]13CCCC[C@@H]1[C@H](C2)N(C)CC3 [DXM, dextromethorphan]
effect of DXM on body (core) temperature ([4]; DXM 30 mg/kg i.p. x3, alone or in combination with MDMA 20 mg/kg p.o.): did not significantly alter; also recorded: no significant effect | body temperature after combination of MDMA and DXM ([4]; MDMA 20 mg/kg p.o. + DXM 30 mg/kg i.p. x3): longer lasting decrease in temperature, which was followed by an increase in core temperature | peak temperatures, MDMA/DXM group vs MDMA/Saline group ([4]; MDMA 20 mg/kg p.o. + DXM 30 mg/kg i.p. x3, difference did not achieve statistical significance): lower | inhibition of CYP450-mediated metabolism of MDMA to HHMA [5]: potent competitive inhibitor
